Data reported in ChEMBL document CHEMBL2375263, “Identification and design of a novel series of MGAT2 inhibitors” (Bioorg Med Chem Lett, 2013).
Values after ≈ are worked out from the molar mass of the structure shown.

How the values were obtained:
[1] = system: Mus musculus; assay: Antiobesity activity in C57Bl6J mouse assessed as inhibition of corn oil-induced triacylglycerol excursion at 5 mg/kg, po administered at 30 mins post corn-oil challenge measured after 2 hrs by oral lipid tolerance test relative to control; format: functional
[2] = system: Mus musculus; assay: Antiobesity activity in C57Bl6J mouse assessed as inhibition of corn oil-induced triacylglycerol excursion at 150 mg/kg, po administered at 30 mins post corn-oil challenge measured after 2 hrs by oral lipid tolerance test relative to control; format: functional
[3] = Tmax in mouse at 100 mg/kg, po; format: ADME, organism-based; parameters: dose 100 mg/kg, route oral; settings: in vivo
[4] = target: T1, Acyl-CoA wax alcohol acyltransferase 2 (Homo sapiens, UniProt Q6E213); assay: Inhibition of human recombinant AWAT2 expressed in insect cell membrane using cetyl alcohol and [14C]oleoyl coenzyme A as substrate after 10 to 15 mins by liquid scintillation counting
T1 sequence (Q6E213 whole entry): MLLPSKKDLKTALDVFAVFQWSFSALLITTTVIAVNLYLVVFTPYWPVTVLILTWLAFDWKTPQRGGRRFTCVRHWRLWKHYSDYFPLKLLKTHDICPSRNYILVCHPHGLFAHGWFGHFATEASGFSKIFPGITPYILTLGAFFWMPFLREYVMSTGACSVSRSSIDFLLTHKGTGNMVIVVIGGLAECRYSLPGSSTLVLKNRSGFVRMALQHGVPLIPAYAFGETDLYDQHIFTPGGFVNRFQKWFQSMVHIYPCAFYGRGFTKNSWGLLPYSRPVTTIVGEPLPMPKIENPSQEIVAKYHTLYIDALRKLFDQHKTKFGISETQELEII

[5] = target: T2, Acyl-CoA wax alcohol acyltransferase 1 (Homo sapiens, UniProt Q58HT5); assay: Inhibition of human recombinant AWAT1 expressed in insect cell membrane using palmitoleyl alcohol and [14C]stearoyl coenzyme A as substrate after 10 to 15 mins by liquid scintillation counting
T2 sequence (Q58HT5 whole entry): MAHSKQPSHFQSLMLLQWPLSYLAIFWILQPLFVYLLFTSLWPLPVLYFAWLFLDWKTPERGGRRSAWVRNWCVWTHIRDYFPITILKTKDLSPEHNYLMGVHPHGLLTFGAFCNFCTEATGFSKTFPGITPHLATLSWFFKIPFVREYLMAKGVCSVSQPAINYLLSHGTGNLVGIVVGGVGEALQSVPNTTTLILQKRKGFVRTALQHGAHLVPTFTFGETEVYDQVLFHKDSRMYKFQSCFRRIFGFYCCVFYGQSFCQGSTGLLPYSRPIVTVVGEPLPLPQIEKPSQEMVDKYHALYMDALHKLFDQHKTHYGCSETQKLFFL

[6] = target: T3, Diacylglycerol O-acyltransferase 2 (Homo sapiens, UniProt Q96PD7); assay: Inhibition of human recombinant DGAT2 using dioleoyl-sn-glycerol and [14C]oleoyl coenzyme A as substrate after 30 mins by liquid scintillation counting
T3 sequence (Q96PD7 whole entry): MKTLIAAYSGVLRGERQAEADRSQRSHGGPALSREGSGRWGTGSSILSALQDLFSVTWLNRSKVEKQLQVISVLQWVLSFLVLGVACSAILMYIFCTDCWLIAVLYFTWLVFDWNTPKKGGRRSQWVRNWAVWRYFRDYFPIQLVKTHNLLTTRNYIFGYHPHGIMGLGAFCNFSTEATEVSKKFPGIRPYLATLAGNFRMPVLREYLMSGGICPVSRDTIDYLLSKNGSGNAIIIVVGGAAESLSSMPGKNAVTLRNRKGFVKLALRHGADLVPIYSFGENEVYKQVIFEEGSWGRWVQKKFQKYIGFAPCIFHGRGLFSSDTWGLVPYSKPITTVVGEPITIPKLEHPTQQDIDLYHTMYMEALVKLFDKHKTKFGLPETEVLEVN

[7] = target: T4, Diacylglycerol O-acyltransferase 1 (Homo sapiens, UniProt O75907); assay: Inhibition of human recombinant DGAT1 expressed in Sf9 cells using dioleoyl-sn-glycerol and [14C]oleoyl coenzyme A as substrate after 30 mins by liquid scintillation counting
T4 sequence (O75907 whole entry): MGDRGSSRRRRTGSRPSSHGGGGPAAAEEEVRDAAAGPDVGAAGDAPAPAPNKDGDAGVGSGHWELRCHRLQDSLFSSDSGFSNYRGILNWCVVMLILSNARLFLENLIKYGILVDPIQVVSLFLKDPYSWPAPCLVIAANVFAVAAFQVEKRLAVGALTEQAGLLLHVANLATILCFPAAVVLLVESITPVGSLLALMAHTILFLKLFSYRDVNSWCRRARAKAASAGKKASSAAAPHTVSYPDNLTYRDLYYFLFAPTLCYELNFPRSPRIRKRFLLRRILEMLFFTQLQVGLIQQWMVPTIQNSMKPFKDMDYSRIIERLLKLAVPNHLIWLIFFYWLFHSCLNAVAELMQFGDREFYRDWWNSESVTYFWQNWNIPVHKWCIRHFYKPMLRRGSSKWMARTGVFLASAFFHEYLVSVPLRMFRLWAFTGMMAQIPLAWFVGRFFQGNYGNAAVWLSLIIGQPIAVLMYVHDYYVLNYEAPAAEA

[8] = Time dependent inhibition of CYP450 (unknown origin); format: ADME; settings: human
[9] = Inhibition of CYP450 (unknown origin); format: ADME; settings: human
[10] = Apparent permeability from apical side to basolateral side of human Caco2 cells at 10 umol/l measured up to 120 mins by LCMS analysis; format: ADME, cell-based; settings: Caco-2
[11] = Dissociation constant, pKa of the compound; format: physicochemical
[12] = Intrinsic clearance in human liver microsomes as 1 umol/l measured up to 30 mins by LC-MS analysis; format: ADME, Microsome; settings: read-out: CLH
[13] = Lipophilicity, log D of the compound at pH 7.4; format: physicochemical; settings: buffer
[14] = system: Liver microsomes; assay: Ratio of compound-glutathione adduct formation to clozapine-glutathione adduct formation in human liver microsomes at 10 umol/l after 30 mins by glutathione trapping method; format: ADME, Microsome; settings: 0.5 h, 10 µM
[15] = Solubility of the compound; format: physicochemical

SMILES | inhibition in vivo at 5 mg/kg [1] | inhibition in vivo at 150 mg/kg [2] | Tmax [3] | IC50 [4] | IC50 [5] | IC50 [6] | IC50 [7] | inhibition (INH) [8] | inhibition (INH) [9] | Papp A→B at 2 h, 10 µM [10] | pKa [11] | microsomal CLint at 1 µM [12] | logD [13] | Ratio [14] | solubility [15]
CC[C@]1(C)NC(=O)c2cc(S(=O)(=O)Nc3ccc(F)cc3F)ccc2NC1=O | 116% | 68% | 30 min | > 100 µM | > 100 µM | > 10 µM | > 10 µM | Not Active | Not Active | 3.3 ×10⁻⁶ cm/s | 7.3 | < 5 µL/min/mg | – | – | –
CC1(C)NC(=O)c2cc(S(=O)(=O)Nc3ccccc3)ccc2NC1=O | – | – | – | – | – | – | – | – | – | – | – | – | 1.6 | – | –
O=C1NC2(CCCC2)C(=O)Nc2ccc(S(=O)(=O)Nc3ccc(Cl)cc3)cc21 | – | – | – | – | – | – | – | – | – | – | – | – | 3 | – | –
CCC1(CC)NC(=O)c2cc(S(=O)(=O)Nc3ccc(F)cc3F)ccc2NC1=O | – | – | – | – | – | – | – | – | – | – | – | – | 2.2 | – | –
CCC1(CC)CNc2ccc(S(=O)(=O)Nc3ccc(F)cc3F)cc2C(=O)N1 | – | – | – | > 100 µM | > 100 µM | > 10 µM | > 10 µM | Not Active | Not Active | 16 ×10⁻⁶ cm/s | 8 | 40 µL/min/mg | – | 1.8 | –
CC[C@]1(C)NC(=O)c2cc(S(=O)(=O)Nc3ccc(C(F)(F)F)cc3)ccc2NC1=O | – | – | – | > 100 µM | > 100 µM | > 10 µM | > 10 µM | Not Active | Not Active | 3.1 ×10⁻⁶ cm/s | 6.9 | < 5 µL/min/mg | – | – | –
CC[C@]1(C)NC(=O)c2cc(S(=O)(=O)Nc3ccc(OC(F)F)cc3)ccc2NC1=O | – | – | – | > 100 µM | > 100 µM | > 10 µM | > 10 µM | Not Active | Not Active | 1.1 ×10⁻⁶ cm/s | 7.9 | 2.8 µL/min/mg | – | – | –
CCC1(C)NC(=O)c2cc(S(=O)(=O)Nc3ccc(OC(F)F)cc3)ccc2NC1=O (racemic) | – | – | – | – | – | – | – | – | – | – | – | – | 2.3 | – | –
CCC1(C)NC(=O)c2cc(S(=O)(=O)Nc3ccc(F)cc3F)ccc2NC1=O (racemic) | – | – | – | – | – | – | – | – | – | – | – | – | 1.8 | – | –
CCC1NC(=O)c2cc(S(=O)(=O)Nc3ccccc3)ccc2NC1=O (racemic) | – | – | – | – | – | – | – | – | – | – | – | – | 1.6 | – | –
CCCC1(C)NC(=O)c2cc(S(=O)(=O)Nc3ccc(F)cc3F)ccc2NC1=O (racemic) | – | – | – | – | – | – | – | – | – | – | – | – | 2.2 | – | –
CCC1(C)NC(=O)c2cc(S(=O)(=O)N(C)c3ccccc3)ccc2NC1=O (racemic) | – | – | – | > 100 µM | > 100 µM | > 10 µM | > 10 µM | Not Active | Not Active | 36 ×10⁻⁶ cm/s | – | 221 µL/min/mg | – | 0 | –
CCC1(C)NC(=O)c2cc(S(=O)(=O)Nc3ccc(Cl)cc3)ccc2N(C)C1=O (racemic) | – | – | – | > 100 µM | > 100 µM | > 10 µM | > 10 µM | Not Active | Not Active | 20 ×10⁻⁶ cm/s | 7.9 | 7 µL/min/mg | – | – | –
CCC1(C)C(=O)Nc2ccc(S(=O)(=O)Nc3ccc(F)cc3F)cc2C(=O)N1C (racemic) | – | – | – | > 100 µM | > 100 µM | > 10 µM | > 10 µM | Not Active | Not Active | 8.1 ×10⁻⁶ cm/s | 7.1 | 9 µL/min/mg | – | – | –
CCC1(C)NC(=O)c2cc(S(=O)(=O)Nc3ccccc3)ccc2NC1=O (racemic) | – | – | – | > 100 µM | > 100 µM | > 10 µM | > 10 µM | Not Active | Not Active | 2.4 ×10⁻⁶ cm/s | 8.7 | < 5 µL/min/mg | 1.9 | – | –
CCC1(C)NC(=O)c2cc(S(=O)(=O)NCc3ccccc3)ccc2NC1=O (racemic) | – | – | – | – | – | – | – | – | – | – | – | – | 1.8 | – | –
CCC1(C)NC(=O)c2cc(S(=O)(=O)NC3CCCCC3)ccc2NC1=O (racemic) | – | – | – | – | – | – | – | – | – | – | – | – | 2 | – | –
CCC1(C)NC(=O)c2cc(S(=O)(=O)Nc3ccc(Cl)cc3)ccc2NC1=O (racemic) | – | – | – | > 100 µM | > 100 µM | > 10 µM | > 10 µM | Not Active | Not Active | 5.5 ×10⁻⁶ cm/s | 8.1 | 3 µL/min/mg | 2.9 | 0.4 | 2 µM (≈ 0.816 µg/mL)
CCC1(C)NC(=O)c2cc(S(=O)(=O)Nc3ccccc3Cl)ccc2NC1=O (racemic) | – | – | – | > 100 µM | > 100 µM | > 10 µM | > 10 µM | Not Active | Not Active | 6.4 ×10⁻⁶ cm/s | 7.2 | < 5 µL/min/mg | 1.9 | 0.1 | –
CCC1(C)NC(=O)c2cc(S(=O)(=O)Nc3ccc(C(F)(F)F)cc3)ccc2NC1=O (racemic) | – | – | – | – | – | – | – | – | – | – | – | – | 3.1 | – | –
CCC1(C)NC(=O)c2cc(S(=O)(=O)Nc3ccc(OC)cc3)ccc2NC1=O (racemic) | – | – | – | > 100 µM | > 100 µM | > 10 µM | > 10 µM | Not Active | Not Active | 1.5 ×10⁻⁶ cm/s | 5.6 | 16 µL/min/mg | 1.8 | – | –
